Reference: article PMC4766439, “Discovery of novel PDE9 inhibitors capable of inhibiting Aβ aggregation as potential candidates for the treatment of Alzheimer’s disease” (Scientific Reports, 2016)
Like-named read-outs stand apart in the source and are kept apart here.

Assays:
[1] = PAMPA-BBB in vitro blood-brain barrier permeation assay; format: in vitro ADME; details: for Papp at 10 h, 100 μg/mL: PAMPA, read-out: Permeability
Protocol: The blood–brain barrier penetration capacity of the compounds was evaluated by using the parallel artificial membrane permeation assay (PAMPA). […] The porcine brain lipid (PBL) was obtained from Avanti Polar Lipids. The donor microplate (PVDF membrane, pore size of 0.45 nm) and the acceptor microplate were from Millipore. The acceptor 96-well microplate (COSTAR) was filled with 300 μL of a PBS/EtOH mixture (7:3) and the filter membrane was impregnated with 4 μL of PBL in dodecane (20 mg/mL). The compounds were dissolved in DMSO at a concentration of 5 mg/mL and diluted with the PBS/EtOH mixture (7:3) to a concentration of 100 μg /mL. Then, 200 μL of this solution was added to the donor wells and the wells were carefully placed on the acceptor plate, which was then incubated for 10 h at 25 °C in a vibrationless environment. After the incubation, the donor plate was removed and the concentration of compounds in the acceptor wells was determined with a UV plate reader (Flexstation 3). Each sample was analyzed at five wavelengths in four wells, and at least three independent runs were performed. The results are expressed as the mean ± standard deviation. In these experiments, 13 quality control standards of known BBB permeability were included to validate the analysis set.
where Vd is the volume in the donor well, Va is the volume in acceptor well, A is the filter area, t is the permeation time, [drug]acceptor is the absorbance of the compound in the acceptor well, and [drug]equilibrium is the theoretical equilibrium absorbance.

[2] = target: T1, PDE9A2 (181–506) (Homo sapiens, UniProt O76083); assay: PDE activity assay, PDE9 catalytic domain; format: biochemical; details: means ± SD of at least three independent experiments
T1 construct: PDE9A2 (181–506)
Protocol: The enzymatic activities of the catalytic domains of PDE9 and other PDEs were measured by using cGMP or cAMP as substrates. The assay buffer contained 20–50 mM Tris–HCl (pH 7.5–8.0), 10 mM MgCl2 or 4 mM MnCl2, 1 mM DTT, and 10–20 nM ^3H-cGMP or ^3H-cAMP (20000–30000 cpm/assay, GE Healthcare). The reaction was performed at room temperature for 15 min and then terminated by the addition of 0.2 M ZnSO4. The addition of 0.25 M BaSO4 precipitated the generated ^3H-GMP, whereas the unreacted ^3H-cGMP remained in solution. The radioactivity in the supernatant was measured in 2.5 mL with an Ultim Gold liquid scintillation counter. […] The IC50 values were calculated by nonlinear regression method by using GraphPad Prism 5.0 Software.

[3] = Oxygen Radical Absorbance Capacity (ORAC-FL) assay; details: Trolox as standard
Protocol: The assays were performed in 75 mM PBS (pH 7.4) and all the tested compounds were dissolved in DMSO and diluted with the PBS. Trolox was used as a standard (1–10 μM final concentration). The tested compounds at different concentrations (20 μL, final concentration: 2 μM) and fluorescein (FL, 120 μL, final concentration: 300 nM) were placed in the wells of a black 96-well plate. The mixture was incubated for 10 min at 37 °C and then, APPH solution (60 μL, final concentration: 12 mM diluted by 75 mM PBS) was added rapidly. […] A blank (FL + AAPH), with PBS replacing the compounds and Trolox was used for calibration in each assay. The compounds were tested at different concentrations (0.5–10 μM). The experiments were performed in three independent runs for each sample. The fluorescence measurements were normalized to that of the blank (without antioxidant). The area under the fluorescence decay curve (AUC) was calculated using the following equation (eq. 2):
where f0 is the fluorescence reading at 0 min and fi is the fluorescence reading at time i. The net AUC was calculated by the expression AUCsample − AUCblank. Regression equations between net AUC and Trolox concentrations were calculated. The final results were expressed in μM of Trolox equivalent/μM of pure compounds.

[4] = target: T2, Aβ1-42 (Homo sapiens, UniProt P05067); assay: ThT assay, inhibition of Cu^2+-induced Aβ1-42 aggregation; format: biochemical; details: [Aβ1-42] = 25 μM, compound 50 μM, [Cu^2+] = 25 μM, 37 °C, 24 h
T2 construct: the Aβ1-42 stock solution was diluted with HEPES buffer; purchased Sigma
T2 sequence (P05067 672-713 limits assumed): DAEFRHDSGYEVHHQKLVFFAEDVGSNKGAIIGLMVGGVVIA
Protocol: The Aβ1−42 sample (Sigma, US) was pretreated with hexafluoro-2-propanol (HFIP) and dissolved in ammonium hydroxide (1% v/v) to prepare a stock solution (2000 μM) that was aliquoted into small samples and stored at −80 °C.

T1 sequence (O76083 241-566): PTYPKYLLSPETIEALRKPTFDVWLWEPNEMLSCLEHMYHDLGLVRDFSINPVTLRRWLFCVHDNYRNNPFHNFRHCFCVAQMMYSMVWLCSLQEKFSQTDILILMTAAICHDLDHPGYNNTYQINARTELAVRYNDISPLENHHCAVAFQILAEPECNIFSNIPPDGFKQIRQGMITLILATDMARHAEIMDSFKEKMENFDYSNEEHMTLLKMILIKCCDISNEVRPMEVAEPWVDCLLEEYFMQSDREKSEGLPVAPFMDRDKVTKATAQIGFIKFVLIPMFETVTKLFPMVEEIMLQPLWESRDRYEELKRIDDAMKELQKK

## CN(C)CCCN1c2ccccc2Sc2ccc(Cl)cc21 [Chlorpromazine, reference compound]
[1]
  Papp at 10 h, 100 μg/mL: 6 ± 0.3 ×10⁻⁶ cm/s

## C[C@@H](/N=C/c1ccccc1O)c1nc2c(cnn2C2CCCC2)c(=O)[nH]1 [Compound 12]
[2]
  IC50: 211 ± 6 nM
[3]
  ORAC: 0.23 ± 0.02 μmol of Trolox equiv/μmol tested compound

## COc1ccc(/C=N/[C@H](C)c2nc3c(cnn3C3CCCC3)c(=O)[nH]2)c(O)c1 [Compound 13]
[2]
  IC50: 35 ± 3 nM
[3]
  ORAC: 0.15 ± 0.01 μmol of Trolox equiv/μmol tested compound

## COc1ccc(/C=N/[C@H](C)c2nc3c(cnn3C3CCOCC3)c(=O)[nH]2)c(O)c1 [Compound 14]
[2]
  IC50: 12 ± 1 nM
[3]
  ORAC: 0.22 ± 0.12 μmol of Trolox equiv/μmol tested compound

## C[C@@H](NCc1ccccc1O)c1nc2c(cnn2C2CCCC2)c(=O)[nH]1 [Compound 15]
[2]
  IC50: 58 ± 2 nM
[3]
  ORAC: 4.75 ± 0.72 μmol of Trolox equiv/μmol tested compound

## COc1ccc(CN[C@H](C)c2nc3c(cnn3C3CCOCC3)c(=O)[nH]2)c(O)c1 [Compound 17]
[2]
  IC50: 51 ± 2 nM
[1]; PBS:EtOH (70:30), mean ± SD of three independent experiments
  Papp at 10 h, 100 μg/mL: 6.54 ± 0.76 ×10⁻⁶ cm/s
[1]; from PAMPA-BBB Pe
  prediction of penetration into the CNS: CNS+ (Compounds of high BBB permeation (CNS+) Pe > 4.7)
[3]
  ORAC: 5.13 ± 0.22 μmol of Trolox equiv/μmol tested compound

## C[C@H](NCc1ccccc1O)c1nc2c(cnn2C2CCCC2)c(=O)[nH]1 [Compound 18]
[2]
  IC50: 114 ± 7 nM
[3]
  ORAC: 4.51 ± 0.43 μmol of Trolox equiv/μmol tested compound

## COc1ccc(O)c(CN[C@H](C)c2nc3c(cnn3C3CCCC3)c(=O)[nH]2)c1 [Compound 19]
[2]
  IC50: 33 ± 3 nM
[3]
  ORAC: 3.54 ± 0.25 μmol of Trolox equiv/μmol tested compound

## COc1cccc(CN[C@H](C)c2nc3c(cnn3C3CCCC3)c(=O)[nH]2)c1O [Compound 20]
[2]
  IC50: 33 ± 4 nM
[3]
  ORAC: 3.50 ± 0.01 μmol of Trolox equiv/μmol tested compound

## C[C@@H](NCc1cc(Cl)ccc1O)c1nc2c(cnn2C2CCCC2)c(=O)[nH]1 [Compound 21]
[2]
  IC50: 47 ± 5 nM
[4]
  inhibitory ratio of Cu^2+-induced Aβ1-42 aggregation (ThT): 65.7%
[3]
  ORAC: 5.84 ± 0.50 μmol of Trolox equiv/μmol tested compound

## C[C@@H](NCc1cc([N+](=O)[O-])ccc1O)c1nc2c(cnn2C2CCCC2)c(=O)[nH]1 [Compound 23]
[2]
  IC50: 36 ± 4 nM
[3]
  ORAC: 1.02 ± 0.05 μmol of Trolox equiv/μmol tested compound

## C[C@@H](NCc1cc(N(C)C)ccc1O)c1nc2c(cnn2C2CCCC2)c(=O)[nH]1 [Compound 24]
[2]
  IC50: 47 ± 3 nM
[3]
  ORAC: 5.62 ± 0.02 μmol of Trolox equiv/μmol tested compound

## C[C@H](NCc1ccccn1)c1nc2c(cnn2C2CCCC2)c(=O)[nH]1 [Compound 25]
[2]
  IC50: 310 ± 13 nM
[3]
  ORAC: 0 μmol of Trolox equiv/μmol tested compound

## C[C@@H](NCc1ccccn1)c1nc2c(cnn2C2CCCC2)c(=O)[nH]1 [Compound 26]
[2]
  IC50: 77 ± 3 nM
[3]
  ORAC: 0 μmol of Trolox equiv/μmol tested compound

## Cc1cccc(CN[C@H](C)c2nc3c(cnn3C3CCCC3)c(=O)[nH]2)n1 [Compound 27]
[2]
  IC50: 60 ± 2 nM
[3]
  ORAC: 0 μmol of Trolox equiv/μmol tested compound

## C[C@@H](/N=C/c1cccc(Br)n1)c1nc2c(cnn2C2CCCC2)c(=O)[nH]1 [Compound 28]
[2]
  IC50: 1160 ± 90 nM
[3]
  ORAC: 0 μmol of Trolox equiv/μmol tested compound

## C[C@@H](NCc1cccc(Br)n1)c1nc2c(cnn2C2CCCC2)c(=O)[nH]1 [Compound 29]
[2]
  IC50: 38 ± 3 nM
[4]
  inhibitory ratio of Cu^2+-induced Aβ1-42 aggregation (ThT): 59.1%
[3]
  ORAC: 0 μmol of Trolox equiv/μmol tested compound

## COc1ccc2[nH]cc(CCNC(C)=O)c2c1 [melatonin, reference compound]
[3]
  oxygen radical absorbance capacity, ORAC-FL value: 2.00 ORAC-FL units
